Assay results as given in a melting point compilation (Tetko et al.; mined from patent text by program, amines drawn as free bases though some values may be those of a salt).

Row | SMILES | melting point [°C]
1 | Nc1ccc(Oc2ccccc2)c(Cl)c1 | 31 to 33
2 | Cc1cccc(C(=O)Nc2nc(C(Cl)(Cl)Cl)ns2)c1 | 142
3 | CC(=O)Nc1ccccc1Sc1ccc([N+](=O)[O-])cc1[N+](=O)[O-] | 183 to 184
4 | CN1Cc2c(C(N)=O)ncn2-c2ccsc2C1=O | 294 to 296
5 | Cc1nc2cc(Nc3nccc(-c4ccc(Cl)nc4)n3)ccc2s1 | 235 to 237
6 | O=c1[nH]cc(Cc2ccccc2)cc1Br | 151 to 152
7 | C=C(Cc1ccccc1)C(=O)NN1CCN(C(=O)OC(C)(C)C)CC1 | 160
8 | CCCCCCCCOc1cc(-n2c(=O)cc(C(F)(F)F)n(C)c2=O)c(F)cc1Cl | 60 to 63
9 | CCOC(=O)c1cc2c3n(ccc-2n1)CC(C(C)C)=N3 | 207 to 209
10 | CCc1nc2c(cnn2CC)c(NC2CCOCC2)c1CNC(=O)c1cccc(C(=O)NCc2cc(Cl)cc(-c3cccc(CN4CC5CC4CN5)c3)c2)c1 (configuration not stated) | 130 to 133
11 | COn1c(-c2ccccc2)nc2c(N)nc3ccccc3c21 | 241 to 243
12 | COc1cc(-c2ccc(C(F)(F)F)cc2)c(C(C)=NOCc2ccc([N+](=O)[O-])cc2)cc1O | 112 to 114
13 | Cc1ccccc1C(CCC(=O)O)Oc1cc(OCc2cccc(C(=O)O)c2)ccc1[N+](=O)[O-] (racemic) | 85 to 87
14 | CCC(CCOC)n1cc(Cl)nc(N2CCc3cc(Cl)cc(Cl)c32)c1=O (configuration not stated) | 95 to 97
15 | Brn1nnc2c3scnc3ccc21 | 282 to 285
16 | O=C(OCC1=CC(O)C2C=COC(OC3OC(CO)C(O)C(O)C3O)C12)c1ccc(O)cc1 (configuration not stated) | 148 to 150
17 | CC1(C)Cc2ccccc2C(c2cnc3ccccc3c2)N1 (configuration not stated) | 117 to 122
18 | Cn1cc(Br)nc(Nc2cnn(C3CC3)c2)c1=O | 228 to 230
19 | Cc1cnc(C)n2c1c(CCSC1=NCCN1)c1ccccc12 | 157 to 159
20 | CN1CCN(C)C(c2ccc(Nc3nc(Br)cn(C)c3=O)cc2)C1=O (configuration not stated) | 206 to 207
21 | O=C(CO)Nc1nc(-c2ccc(Br)cc2)cs1 | 222 to 224
22 | CCCc1nc2c(N)nc3cccnc3c2n1CCCCN(OC)C(=O)NC(C)C | 161 to 162
23 | COc1cccc2c1CCCC2N1CCN(C)CC1 (configuration not stated) | 69 to 71
24 | C[C@H](NC(=O)c1c[nH]c2ncc(-c3nn(C)c4cc(Cl)ccc34)nc12)C(C)(C)C#N | 322 to 328

Row | SMILES | melting point [°C]
25 | CCCc1nc2c(N)nc3ccccc3c2n1CCCCCS(C)(=O)=O | 179 to 181
26 | COC(=O)c1ccc(C#N)s1 | 76 to 78
27 | COc1ccc(/C=N/Nc2ccccn2)cc1OC1CCCC1 | 142 to 143
28 | Fc1ccc(-c2cncc(CNCCOc3cccc4ccccc34)c2)cc1 | 92 to 94
29 | Oc1ccc(-n2c(-c3ccccc3)cc3c2CCCC3)cc1 | 181 to 182
30 | C=C1C(=O)N(C)CCC1(O)c1cccc(OC)c1 (configuration not stated) | 127 to 128
31 | Cn1nnnc1CC(O)(c1ccccc1)c1ccc(F)cc1 (configuration not stated) | 113 to 114
32 | COc1nccc(F)c1NC(=O)OC(C)(C)C | 75 to 77
33 | Cc1c(C(=O)Nc2ncc(CO)s2)nnn1Cc1ccc(Cl)c(Cl)c1 | 170
34 | O=Cc1ccc2oc3ncccc3c(=O)c2c1 | 233 to 235
35 | O=C1C[C@]2(c3ccccc3)CCCC[C@H]2C(=O)N1 (relative stereo) | 180 to 182
36 | C[C@]12CCC(=O)N[C@@H]1CCc1cc(Sc3ccccc3)ccc12 | 183 to 185
37 | COc1ncc(-c2ccc3nnn(Cc4ccc5ncccc5c4)c3n2)cn1 | 201 to 203
38 | CCC(C)(C)c1cc(-c2cccc(C=C3SC(N4CCOCC4)=NC3=O)c2)ccc1O | 174 to 176
39 | CCCc1cc(-c2[nH]c3ccccc3c2C)cc(CCC)c1O | 102
40 | Cc1ccc(C(=O)C2=C(O)C(=O)N(c3ccc(C)nn3)C2c2ccc(OCCN(C)C)cc2)cc1 (configuration not stated) | 263 to 266
41 | Cc1ccc(Sc2nc(Cl)cc(OCCOc3ccccc3)n2)cc1 | 128 to 132
42 | FC(F)C(F)(F)Oc1cccc(Nc2nccc(-c3ccncc3)n2)c1 | 191 to 192
43 | CCCCCC(=O)c1cc2c(cc1/C=C/c1ccc(C(=O)O)cc1)C(C)(C)CCC2(C)C | 118 to 119
44 | C=Cc1c(CS)cnc(C)c1O | 130 to 140
45 | CCN(CC)CC1CCCCN1CC(=O)N1c2ccccc2NC(=O)c2c1ccn2C (configuration not stated) | 141 to 144
46 | NC(N)=NC(=O)Cc1c(-c2ccccc2)csc1-c1ccccc1 | 204 to 206
47 | Cn1c(-c2ccc(-c3ccco3)cc2)cnc1[C@H](Cc1ccccn1)N(C=O)c1cc2cc(Cl)ccc2o1 | 144 to 146
48 | CC(C)n1nc(-c2sc(NC(=O)c3cc(C(F)(F)F)cc(C(F)(F)F)c3)nc2-c2ccccc2)ccc1=O | 207 to 208

Row | SMILES | melting point [°C]
49 | O=C(O)c1sc(-c2ccc(C(F)(F)F)cc2)nc1C(F)(F)F | 177 to 179
50 | N#Cc1ccc2c(c1)S(=O)c1ccccc1CC2=O (configuration not stated) | 219 to 221
51 | NS(=O)(=O)c1ccc(-n2nc(C(F)(F)F)c(Cl)c2-c2ccc(Cl)cc2)cc1 | 180 to 182
52 | CC(C)(C)OC(=O)n1ccc2cnccc21 | 65
53 | N#Cc1c(Cl)c2ccccc2n(Cc2ccc(F)cc2)c1=O | 231
54 | CC(C)c1nc(CN(C)C(=O)N[C@@H](C)C(=O)N[C@@H](Cc2ccccc2)C[C@H](O)[C@H](Cc2ccccc2)NC(=O)OCc2cncs2)cs1 | 56 to 58
55 | COc1ccc(C(C)=O)c(CC(=O)O)c1 | 153 to 155
56 | Cc1cc2nc(C(=O)NC(Cc3ccc(OCc4ccccc4)cc3)C(=O)O)cn2cc1-c1ccc(Cl)cc1 (configuration not stated) | 248 to 249
57 | Cc1cc2c(s1)Nc1ccccc1N=C2N1CCN(C)[C@@H](COCc2ccccc2)C1 | 55 to 65
58 | CCOC(=O)c1c(N2CCN(C=O)CC2)c2cc(C)ccc2n(Cc2ccccc2)c1=O | 196
59 | Cc1[nH]c(=S)n(Nc2cccc(Br)c2)c1-c1ccccc1 | 190
60 | CS(=O)(=O)c1nnc(F)s1 | 65
61 | COc1ccc(CCNc2ncnc3occ(C)c23)cc1 | 184
62 | CCOc1cc(COc2nn(Cc3ccccc3)cc2CO)ccc1OCc1nc(-c2ccco2)oc1C | 137 to 138
63 | O=C(CCl)c1scc(Br)c1Br | 86 to 88
64 | COC(=O)c1cc(-c2nc(COc3ccc(CO)cc3OC)c(C)o2)ccc1C | 145 to 146
65 | CCN(CC)CCOc1ccc(Nc2ncc3c(n2)N(C)C(=O)N(C2CCCCC2)C3)cc1 | 90 to 92
66 | CCOC(=O)C1=C(NC(=O)Nc2cc(C(=O)OC(C)C)c(Cl)cc2F)CCCC1 | 129 to 130
67 | CC(=O)Nc1nc2c(s1)-c1nc(N3CCCC3=O)ncc1CC2 | > 160
68 | CCOC=CC(=O)Nc1cccc(C(=O)OC)c1 | 108 to 110
69 | O=C(c1ccc(F)cc1)C1CCN(CCn2c(=O)[nH]c3ncccc3c2=O)CC1 | 60
70 | CC(C)(C)C(=O)NNc1ccc([N+](=O)[O-])cc1Br | 145
71 | COC1=C(OC)C(=O)C2=C(CCC(CCOc3ccccc3)CC2)C1=O | 71 to 72
72 | COC(=O)CS(=O)(=O)Nc1c(F)cc(F)cc1F | 99 to 100
